According to patent US12384806B2, “Isopaucifloral F phosphate compound and pharmaceutical use thereof” (FUDAN UNIVERSITY, priority 2020, dated 2025):

How the values were obtained:
[1] = system: mouse osteoblast precursor cells MC3T3-E1 Subclone 14; assay: Differentiation-promoting effect, ALP enzyme activity assay; type: cell-based; conditions: for ALP enzyme activity relative values (experimental group/blank group): 6th day
Text: (2) Study on the differentiation-promoting effect of compounds on mouse osteoblast precursor cells MC3T3-E1 Subclone 14 (see Table 2): MC3T3-E1 subclone 14 cells were digested with pancreatin and collected and then seeded into a 6-well plate at 4×10^4/well. […] The administration concentrations of the compounds were 10^−4˜10^−9 M, respectively; and the administration concentration of the positive control drug group genistein GEN was 10^−6 M, a concentration at which it had the highest osteogenesis promoting ability as reported in the literature. On the 6th day of administration, each well was washed twice with PBS, 150 uL of Western and IP cell lysate (with no protein inhibitor, commercially available from Beyotime) was then added to lyse the cells. This operation was performed on ice. 50 uL of cell lysate was diluted to 250 uL with PBS. 50 uL of dilution was additionally transferred to a 96-well plate for an ALP enzyme activity assay. The absorbance of each well in the 96-well plate was measured with a microplate reader at 405 nm.

[2] = system: mouse osteoblast precursor cells MC3T3-E1 Subclone 14; assay: Proliferation-promoting effect by MTT assay; type: cell-based; conditions: for Proliferation Rate: 6th day, MTT
Description: Genistein and estradiol were used as positive control groups. MC3T3-E1 Subclone 14 was cultured using the α-MEM medium containing 10% FBS in a constant temperature incubator at 37° C. with 5% CO2. The MC3T3-E1 Subclone 14 cells in logarithmic growth phase and in good condition were digested with addition of an appropriate amount of trypsin (commercially available from GIBCO), and the cells were collected. The cells were resuspended in the α-MEM medium containing 10% FBS, and seeded on a 96-well plate at an amount of 2000 cells per well. After cell adhesion, the medium was changed to the α-MEM medium containing 10% FBS of different concentrations of compounds at 200 μL per well. The cells with the culture fluid containing 0.2% DMSO added thereto were used as a negative control group of the medium. The medium was added to the wells without seeded cells as a blank control group. Six replicate wells were set for each concentration. The medium was changed once every 2 days, and on the 6th day of administration, a 20 μL MTT/PBS solution at 5 mg/mL was added to the above 96-well plate, and the incubation was continued for 4 hours. After the time point, the liquid was carefully aspirated and 150 μL of DMSO was added to each well to completely dissolve the purple crystal formazan formed by live cells and MTT. The optical density (OD) value was measured at 490 nm with a microplate reader. The proliferation rate was calculated according to the following formula: Proliferation rate=[(the average OD value of the administration group−the average OD value of the blank group)/(the average OD value of the culture fluid control group−the average OD value of the blank group)].

osteoblasts = assay: Formation of calcium nodules in osteoblasts (Alizarin Red); type: cell-based, mouse; conditions: 15th day
Description: (3) Study on the effect of target compounds on the formation of calcium nodules in osteoblasts (see FIG. 1 and Table 3 for details): after being digested, the cells were seeded into a 6-well plate at 4×10^4/well. […] The administration concentrations of the compounds were 10^−4˜10^−9 M, respectively; and the concentration of genistein is 10^−6 M. On the 15th day of administration, the medium was aspirated, each well was then washed twice with PBS, the cells were then fixed with 95% ethanol for 10 minutes and rinsed twice with double distilled water. 2 mL of a 0.1% Alizarin Red-Tris. HCl solution (PH=8.3) was added to each well, the cells were incubated at 37° C. for 30 minutes, then rinsed with double distilled water for several times, dried, and mounted. The formation of calcium nodules was further observed by taking pictures under a 40× microscope. Afterwards, 1 mL of a 10% cetylpyridinium chloride solution was added to each well, and the incubation was carried out for 30 minutes to release the Alizarin Red staining. The solution was transferred to a 96-well plate at 200 uL per well, the absorbance was measured at 562 nm using a microplate reader, and a quantitative analysis of calcium nodules was performed.

[3] = Determination of lipid-water partition coefficients (n-octanol/water, HPLC); type: physicochemical; conditions: 37° C.
Description: (1) Determination of lipid-water partition coefficients: a standard curve was first made. […] Their respective solution was subjected to the HPLC sample injection analysis. HPLC conditions were: mobile phase: 5%˜95% acetonitrile/water, gradient elution, a flow rate of 0.6 mL/min, a sample injection volume of 10 μL, a detection wavelength of 254/280 nm, run for 20 min. The retention time and peak area were recorded, and the standard curve was obtained by regressing the concentration and the peak area.
Moreover, 10 mL of water and 10 mL of n-octanol were taken into a 25 mL eggplant-shaped flask and stirred for 24 hours until the two phases were saturated with each other. The mixed solution was then transferred to a separatory funnel. Let it stand for liquid separation. 1 mL of the upper layer (saturated n-octanol layer) was taken, about 2 mg of the compound to be tested was added to vortex for 5 minutes to fully dissolve, and 1 mL of saturated aqueous phase was additionally taken and mixed with the saturated n-butanol phase in which the compound was dissolved. After vortexing for 5 minutes and oscillation for 24 hours in a water bath at 37° C., centrifugation was performed at 3500 rpm for 15 minutes. The upper n-octanol layer and the lower aqueous layer were respectively taken for the sample injection analysis under HPLC conditions. […]

[4] = system: mouse mononuclear macrophages RAW264.7; assay: Bone resorption inhibition: TRAP-positive multinucleated osteoclast count; type: cell-based; conditions: 5 days; for Number of Osteoclasts (cell): control group 117
Description: After being cultured for 5 days, the cells were stained with a tartrate-resistant acid phosphatase TRAP incubation solution, mounted with glycerol gelatin, and observed under light microscope to count stained TRAP-positive multinucleated cells (as shown in FIG. 2). The inhibition rate of the administrated drug on the number of TRAP-positive multinucleated cells is (nTRAP-positive multinucleated osteoclasts in the negative control group−nTRAP-positive multinucleated osteoclasts in the drug administration group)/nTRAP-positive multinucleated osteoclasts in the negative control group×100%.

[5] = Metabolic stability in human liver microsomes; type: in vitro ADME; conditions: 37° C.
Description: Experimental method: the incubation system comprising human liver microsomes, cofactors, and PBS was pre-incubated at 37° C. for 3 minutes, and a substrate was added to start the reaction. Sampling was performed at 0, 1, 5, 10, 15, 20, 30, and 60 minutes after the start of the reaction, and an appropriate terminator was added to terminate the reaction. Sample treatment (n=3): appropriate internal standards were added to each; after vortexing, centrifugation was performed at a high speed, the supernatant was taken, and the substrate was detected by employing HPLC-MS/MS. The peak area at a time point 0 min was taken as 100%. Peak areas at other time points were converted to the remaining percentage, the natural logarithm of the remaining percentage at each time point versus incubation time was plotted, and a slope (−k) was calculated by linear regression, and then CLint (mL·min^−1·mg^−1) was calculated based on the inherent clearance (CLint)=(k×the volume of incubation solution)/mass of liver microsomes.

estrogen receptor ERβ = estrogen receptor ERβ (Homo sapiens, UniProt Q92731); assay: Estrogen receptor agonism (earlier experiments of the research team)
Chain of estrogen receptor ERβ (Q92731 whole entry): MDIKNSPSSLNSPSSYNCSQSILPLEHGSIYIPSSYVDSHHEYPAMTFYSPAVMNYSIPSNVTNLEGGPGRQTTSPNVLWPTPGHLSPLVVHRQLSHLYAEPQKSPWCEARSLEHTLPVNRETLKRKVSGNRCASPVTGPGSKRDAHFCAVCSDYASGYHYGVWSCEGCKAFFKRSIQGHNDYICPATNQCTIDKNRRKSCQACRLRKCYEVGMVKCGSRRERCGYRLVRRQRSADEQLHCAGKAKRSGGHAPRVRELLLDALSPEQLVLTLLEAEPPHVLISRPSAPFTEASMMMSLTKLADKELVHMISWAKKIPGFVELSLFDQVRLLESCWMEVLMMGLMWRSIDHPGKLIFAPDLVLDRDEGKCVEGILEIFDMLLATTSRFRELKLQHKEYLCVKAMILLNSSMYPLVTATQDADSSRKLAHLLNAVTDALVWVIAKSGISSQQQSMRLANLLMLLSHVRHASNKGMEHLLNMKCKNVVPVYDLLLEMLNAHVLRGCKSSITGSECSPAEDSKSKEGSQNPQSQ

Row | SMILES | ALP enzyme activity relative values (experimental group/blank group) ([1]; 10^−4 M) | ALP enzyme activity relative values (experimental group/blank group) ([1]; 10^−5 M) | ALP enzyme activity relative values (experimental group/blank group) ([1]; 10^−6 M) | ALP enzyme activity relative values (experimental group/blank group) ([1]; 10^−7 M) | ALP enzyme activity relative values (experimental group/blank group) ([1]; 10^−8 M) | ALP enzyme activity relative values (experimental group/blank group) ([1]; 10^−9 M) | Proliferation Rate ([2]; 10^−4 M) | Proliferation Rate ([2]; 10^−5 M) | Proliferation Rate ([2]; 10^−6 M) | Proliferation Rate ([2]; 10^−7 M) | Proliferation Rate ([2]; 10^−8 M) | Proliferation Rate ([2]; 10^−9 M) | Relative values of calcium nodule amount (experimental group/blank group) (osteoblasts; 10^−8 M) | Relative values of calcium nodule amount (experimental group/blank group) (osteoblasts; 10^−6 M) | Number of Osteoclasts (cell) ([4]; 10^−6 M) | Number of Osteoclasts (cell) ([4]; 10^−8 M) | also measured
1 | CCOP(=O)(OCC)OC1=C(c2cc(OC)cc(OC)c2)C(c2ccc(OP(=O)(OCC)OCC)cc2)c2c(OC)cc(OC)cc21 (stereo not drawn) [7a] | 2.362 ± 0.04 | 1.440 ± 0.31 | 1.023 ± 0.05 | 0.877 ± 0.01 | 0.860 ± 0.01 | 0.861 ± 0.05 | – | – | – | – | – | – | – | – | – | – | –
2 | CCOP(=O)(OCC)OC1=C(c2cc(OC)cc(OC)c2)C(c2ccc(OC)cc2)c2c(OC)cc(OC)cc21 (stereo not drawn) [7b] | 0.919 ± 0.04 | 0.986 ± 0.17 | 0.993 ± 0.01 | 1.195 ± 0.02 | 1.097 ± 0.07 | 0.899 ± 0.11 | – | – | – | – | – | – | – | – | – | – | –
3 | C[C@]12CC[C@@H]3c4ccc(O)cc4CC[C@H]3[C@@H]1CC[C@@H]2O [E2, estradiol] | – | – | – | – | 1.050 ± 0.02 | – | 0.05 ± 0.002 | 0.82 ± 0.003 | 1.07 ± 0.019 | 1.08 ± 0.003 | 1.07 ± 0.005 | 1.06 ± 0.003 | 1.007 ± 0.02 | – | – | – | –
4 | O=c1c(-c2ccc(O)cc2)coc2cc(O)cc(O)c12 [GEN, genistein] | – | – | 1.341 ± 0.01 | – | – | – | 0.02 ± 0.0003 | 0.71 ± 0.007 | 1.05 ± 0.019 | 0.99 ± 0.003 | 1.01 ± 0.005 | 1.03 ± 0.003 | – | 1.028 ± 0.03 | – | – | –
5 | O=C1c2cc(O)cc(O)c2[C@@H](c2ccc(O)cc2)[C@@H]1c1cc(O)cc(O)c1 [Isopaucifloral F, isopaucifloral F] | 0.732 ± 0.03 | 0.951 ± 0.04 | 0.954 ± 0.02 | 1.135 ± 0.06 | 1.029 ± 0.11 | 0.864 ± 0.05 | 1.24 ± 0.028 | 1.06 ± 0.014 | 1.02 ± 0.024 | 0.98 ± 0.020 | 0.98 ± 0.045 | 0.95 ± 0.016 | 0.917 ± 0.03 | 0.932 ± 0.03 | 85 cell | 102 cell | log P [3]: 1.34; proliferation rates ([2]; highest value of each compound, concentration not given): 124%; ALP enzyme activity, times those of the control group ([1]; highest value, concentration not given): 1.14 times; ALP enzyme activity increased by ([1]; versus control group, concentration not given): 13.5%; Relative values of calcium nodule amount (experimental group/blank group) (osteoblasts; 10^−4 M): 0.982 ± 0.04; Relative values of calcium nodule amount (experimental group/blank group) (osteoblasts; 10^−5 M): 0.915 ± 0.03; Relative values of calcium nodule amount (experimental group/blank group) (osteoblasts; 10^−7 M): 0.964 ± 0.03; Relative values of calcium nodule amount (experimental group/blank group) (osteoblasts; 10^−9 M): 0.916 ± 0.03; Relative Inhibition Rates (%) ([4]; 10^−4 M): 28.2%; Number of Osteoclasts (cell) ([4]; 10^−4 M): 84 cell; Relative Inhibition Rates (%) ([4]; 10^−6 M): 27.4%; Relative Inhibition Rates (%) ([4]; 10^−8 M): 12.8%; CLint(liver) [5]: 123.4 mL/min/kg; T1/2 [5]: 10.1 min; activity at estrogen receptor ERβ (estrogen receptor ERβ): selective agonist
6 | O=C(c1ccc(OCCN2CCCCC2)cc1)c1c(-c2ccc(O)cc2)sc2cc(O)ccc12 [Raloxifene] | – | – | – | – | – | – | – | – | – | – | – | – | – | – | 64 cell | 67 cell | inhibition at 1 µM ([4]; Mus musculus, RAW264.7, 120 h, 10^−6 M, read-out: Relative Inhibition Rates (%)): 45.3%; inhibition at 0.01 µM ([4]; Mus musculus, RAW264.7, 120 h, 10^−8 M, read-out: Relative Inhibition Rates (%)): 42.7%
